Test results as given in patent publication US10435406B2, “6,7-cyclicmorphinan derivatives and use thereof” (Purdue Pharma L.P., priority 2014, dated 2019).

Key:
μ-opioid receptor [1] = target: T1, μ-opioid receptor (Homo sapiens (Human), UniProt P35372); test: μ-opioid receptor [35S]GTPγS functional assay (U-2 OS); assay type: biochemical; settings: for Emax: U2OS, GTPγS, relative to DAMGO
Method: (§1) [^35S]GTPγS functional assays were conducted using freshly thawed μ-receptor membranes prepared in-house from a cell line expressing recombinant μ opioid receptor in a HEK-293, CHO or U-2 OS cell background, or purchased from a commercial source (Perkin Elmer, Shelton, Conn.; or DiscovRx, Fremont, Calif.). Assay reactions were prepared by sequentially adding the following reagents to binding buffer (100 mM NaCl, 10 mM MgCl2, 20 mM HEPES, pH 7.4) on ice (final concentrations indicated): membrane protein (0.026 mg/mL), saponin ([…]), GDP ([…]) and [^35S]GTPγS (0.20 nM; Perkin Elmer, Shelton, Conn.). The prepared membrane solution (190 μl/well) was transferred to 96-shallow well polypropylene plates containing 10 μl of 20× concentrated stock solutions of the agonist [D-Ala^2, N-methyl-Phe^4 Gly-ol^5]-enkephalin (DAMGO) prepared in dimethyl sulfoxide (DMSO). Plates were incubated for […] at about 25° C. with shaking. Reactions were terminated by rapid filtration onto 96-well Unifilter GF/B filter plates (Perkin Elmer, Shelton, Conn.) using a 96-well tissue harvester (Perkin Elmer, Shelton, Conn.) followed by three filtration washes with 200 μl of ice-cold wash buffer (10 mM NaH2PO4, 10 mM Na2HPO4, pH 7.4). Filter plates were subsequently dried at 50° C. for 2-3 hours. BetaScint scintillation cocktail (Perkin Elmer, Shelton, Conn.) was added (50 μl/well) and plates were counted using a Packard Top-Count for 1 min/well. Data were analyzed using the sigmoidal dose-response curve fitting functions in GraphPad PRISM v. 3.0, or an in-house function for non-linear, sigmoidal dose-response curve-fitting.
(§2) μ GTP EC50 is the concentration of a compound providing 50% of the maximal response for the compound at a μ-opioid receptor.
(§3) μ GTP Emax (%) is the maximal effect elicited by a compound relative to the effect elicited by DAMGO, a standard agonist. Generally, the μ GTP Emax (%) value measures the efficacy of a compound to treat or prevent pain or other Conditions.
(§4) In TABLE 4, activity response of certain Compounds of the Invention to the μ- and κ-opioid receptors was determined as described above for functional assays using U-2 OS cells.

κ opioid receptor [2] = target: T2, κ opioid receptor (Homo sapiens (Human), UniProt P41145); test: κ-opioid receptor [35S]GTPγS functional assay (U-2 OS); assay type: biochemical; settings: for Emax: U2OS, GTPγS, relative to U69,593
Method: (§5) Functional [^35S]GTPγS binding assays were conducted as follows. K opioid receptor membrane solution was prepared by sequentially adding final concentrations of 0.026 μg/μl membrane protein (in-house), 10 μg/mL saponin, 3 μM GDP and 0.20 nM [^35S]GTPγS to binding buffer (100 mM NaCl, 10 mM MgCl2, 20 mM HEPES, pH 7.4) on ice. The prepared membrane solution (190 μl/well) was transferred to 96-shallow well polypropylene plates containing 10 μl of 20× concentrated stock solutions of agonist prepared in DMSO. Plates were incubated for 30 min at a temperature of about 25° C. with shaking. Reactions were terminated by rapid filtration onto 96-well Unifilter GF/B filter plates (Perkin Elmer, Shelton, Conn.) using a 96-well tissue harvester (Packard) and followed by three filtration washes with 200 μl ice-cold binding buffer (10 mM NaH2PO4, 10 mM Na2HPO4, pH 7.4). Filter plates were subsequently dried at 50° C. for 2-3 hours. Fifty μl/well scintillation cocktail (Perkin Elmer, Shelton, Conn.) was added and plates were counted in a Packard Top-Count for 1 min/well.
(§6) GTP EC50 is the concentration of a compound providing 50% of the maximal response for the compound at a κ receptor.
(§7) κ GTP Emax (%) is the maximal effect elicited by a compound relative to the effect elicited by U69,593.
as §4

μ-opioid receptor [3] = target: T1, μ-opioid receptor; test: μ-opioid receptor radioligand dose-displacement binding assay (HEK); settings: HEK cells; [3H]-diprenorphine
Method: Radioligand dose-displacement binding assays for μ-opioid receptors used 0.3 nM [^3H]-diprenorphine (Perkin Elmer, Shelton, Conn.), with […] membrane protein/well in a final volume of 500 μl binding buffer (10 mM MgCl2, 1 mM EDTA, 5% DMSO, 50 mM HEPES, pH 7.4). Reactions were carried out in the absence or presence of increasing concentrations of unlabeled naloxone. All reactions were conducted in 96-deep well polypropylene plates for 2 hours at room temperature. Binding reactions were terminated by rapid filtration onto 96-well Unifilter GF/C filter plates (Perkin Elmer, Shelton, Conn.), presoaked in 0.5% polyethylenimine using a 96-well tissue harvester (Perkin Elmer, Shelton, Conn.) followed by performing three filtration washes with 500 μl of ice-cold binding buffer. Filter plates were subsequently dried at 50° C. for 2-3 hours. BetaScint scintillation cocktail (Perkin Elmer, Shelton, Conn.) was added (50 μl/well), and plates were counted using a Packard Top-Count for 1 min/well. The data were analyzed using the one-site competition curve fitting functions in GraphPad PRISM™ v. 3.0 or higher (San Diego, Calif.), or an in-house function for one-site competition curve-fitting.
(§8) In TABLE 2, binding affinity of certain Compounds of the Invention to the μ- and κ-opioid receptors was determined as described above using HEK cells.

κ opioid receptor [4] = target: T2, κ opioid receptor; test: κ-opioid receptor radioligand dose-displacement binding assay (HEK); settings: HEK cells; [3H]-U69,593
Method: Membranes from recombinantHEK-293 cells, CHO or U-2 OS cells expressing the recombinant human κ opioid receptor (κ) were prepared by lysing cells in ice cold hypotonic buffer (2.5 mM MgCl2, 50 mM HEPES, pH 7.4) (10 mL/10 cm dish) followed by homogenization with a tissue grinder/Teflon pestle. Membranes were collected by centrifugation at 30,000×g for 15 min at 4° C. and pellets were resuspended in hypotonic buffer to a final concentration of 1-3 mg/mL. Protein concentrations were determined using the BioRad protein assay reagent with bovine serum albumen as standard. Aliquots of κ receptor membranes were stored at −80° C.
Radioligand dose displacement assays used 0.4 nM [^3H]-U69,593 (GE Healthcare, Piscataway, N.J.; 40 Ci/mmole) with 15 μg membrane protein (recombinant κ opioid receptor expressed in HEK 293 cells; in-house prep) in a final volume of 200 μl binding buffer (5% DMSO, 50 mM Trizma base, pH 7.4). Non-specific binding was determined in the presence of 10 μM unlabeled naloxone or U69,593. All reactions were performed in 96-well polypropylene plates for 1 hour at a temperature of about 25° C. Binding reactions were terminated by rapid filtration onto 96-well Unifilter GF/C filter plates (Perkin Elmer, Shelton, Conn.) presoaked in 0.5% polyethylenimine (Sigma). Harvesting was performed using a 96-well tissue harvester (Perkin Elmer, Shelton, Conn.) followed by five filtration washes with 200 μl ice-cold binding buffer. Filter plates were subsequently dried at 50° C. for 1-2 hours. Fifty μl/well scintillation cocktail (Perkin Elmer, Shelton, Conn.) was added and plates were counted in a Packard Top-Count for 1 min/well.
as §8

μ-opioid receptor [5] = target: T1, μ-opioid receptor; test: μ-opioid receptor [35S]GTPγS functional assay (HEK); assay type: biochemical; settings: for Emax: HEK, GTPγS, relative to DAMGO
Method: as §1, §2, §3
(§9) In TABLE 3, activity response of certain Compounds of the Invention to the μ- and κ-opioid receptors was determined as described above for functional assays using HEK cells.

κ opioid receptor [6] = target: T2, κ opioid receptor; test: κ-opioid receptor [35S]GTPγS functional assay (HEK); assay type: biochemical; settings: for Emax: HEK, GTPγS, relative to U69,593
Method: as §5, §6, §7, §9

| SMILES | EC50 (μ-opioid receptor [1]) | Emax (μ-opioid receptor [1]) | EC50 (κ opioid receptor [2]) | Emax (κ opioid receptor [2]) | Ki (μ-opioid receptor [3]) | Ki (κ opioid receptor [4]) | EC50 (μ-opioid receptor [5]) | Emax (μ-opioid receptor [5]) | EC50 (κ opioid receptor [6]) | Emax (κ opioid receptor [6]) |
| --- | --- | --- | --- | --- | --- | --- | --- | --- | --- | --- |
| O=C1C[C@@H]2C[C@@]3(O)[C@H]4Cc5ccc(O)cc5[C@@]3(CCN4CC3CC3)C[C@@H]2N1 [Compound 10, (6R,6aS,7aS,10aS,11aR)-14-(cyclopropylmethyl)-2,6a-dihydroxy-5,6,6a,7,7a,8,10a,11-octahydro-6,11a-(epiminoethano)naphtho[2,1-f]indol-9(10H)-one] | 1.59 ± 0.19 nM | 46 ± 1% | 0.42 ± 0.027 nM | 112 ± 2.65% | 0.8 ± 0.1 nM | 0.16 ± 0.017 nM | > 20000 nM | 0% | 1 ± 0.18 nM | 76.2 ± 5.39% |
| COc1ccc2c(c1)[C@]13CCN(CC4CC4)[C@H](C2)[C@]1(O)C[C@H]1CC(=O)N[C@H]1C3 [Compound 1, (6R,6aS,7aS,10aS,11aR)-14-(cyclopropylmethyl)-6a-hydroxy-2-methoxy-5,6,6a,7,7a,8,10a,11-octahydro-6,11a-(epiminoethano)naphtho[2,1-f]indol-9(10H)-one] | 223 ± 42 nM | 81.7 ± 3.33% | 66.9 ± 3.47 nM | 99 ± 1.53% | 533 ± 170 nM | 12.4 ± 3.09 nM | 821 ± 190 nM | 25.8 ± 0.48% | 1770 ± 713 nM | 77 ± 8.19% |
| CCN1C(=O)C[C@@H]2C[C@@]3(O)[C@H]4Cc5ccc(O)cc5[C@@]3(CCN4CC3CC3)C[C@@H]21 [Compound 16, (6R,6aS,7aS,10aS,11aR)-14-(cyclopropylmethyl)-10-ethyl-2,6a-dihydroxy-5,6,6a,7,7a,8,10a,11-octahydro-6,11a-(epiminoethano)-naphtho[2,1-f]indol-9(10H)-one] |  |  |  |  |  | 0.31 ± 0.085 nM | 4.18 ± 0.61 nM | 20 ± 0.91% | 0.66 ± 0.059 nM | 49.7 ± 2.19% |
| O=C1C[C@@H]2C[C@@]3(O)[C@H]4Cc5ccc(O)cc5[C@@]3(CCN4CCc3ccccc3)C[C@@H]2N1 [Compound 5, (6R,6aS,7aS,10aS,11aR)-2,6a-dihydroxy-14-phenethyl-5,6,6a,7,7a,8,10a,11-octahydro-6,11a-(epiminoethano)naphtho[2,1-f]indol-9(10H)-one] |  |  |  |  |  | 4.03 ± 0.7 nM | 1.94 ± 0.073 nM | 99.7 ± 2.03% | > 20000 nM | -0.25 ± 0.75% |
| O=C1C=C2C[C@@]3(O)[C@H]4Cc5ccc(O)cc5[C@@]3(CCN4CC3CC3)CC2N1 (stereo partly drawn) [Compound 9, (6R,6aS,11aR)-14-(cyclopropylmethyl)-2,6a-dihydroxy-5,6,6a,7,10a,11-hexahydro-6,11a-(epiminoethano)naphtho[2,1-f]indol-9(10H)-one] | 6.35 ± 1.74 nM | 19.5 ± 0.29% | 4.96 ± 0.59 nM | 87.5 ± 6.44% | 2.34 ± 0.27 nM | 2.16 ± 0.45 nM | > 20000 nM | 1% | 7.24 ± 1.69 nM | 27.2 ± 3.45% |
